Results as given in patent US9682926B2, “Cancer chemotherapeutic agent/formulation, manufacture and use thereof” (Bose Institute, priority 2012, dated 2017).
“And” between values parts separate entries of the source, which are not always exact repeats. Equal values may be shown once. Read-outs that look alike come from different tables or passages of the source.

Key:
[1] = system: S-180 tumor cells
Excerpt: (§1) For the determination of cell cycle phase distribution of nuclear DNA, cells from bone marrow and tumor tissue (1×10^6 cells) were harvested from tumor bearing untreated and treated mice.

[2] = system: bone marrow cells
Excerpt: as §1

[3] = Experimental: (§2) The homogenate was then centrifuged at 10,000 g at 4° C. for 20 mins.
The amount of malondialdehyde was measured by reaction with thiobarbituric acid at 532 nm using spectrophotometer. MDA levels were calculated using the standard curve of malondialdehyde and its level expressed in nM/mg of protein.

[4] = system: SOD, CAT and GST
Experimental: as §2
Briefly, assay mixture consists of 3 mL of H2O2 phosphate buffer and 0.05 mL of the supernatant of the tissue homogenate. The change in absorbance was recorded for 2 min at 30 s interval at 240 nm using spectrophotometer.
One unit of enzyme activity is defined as the amount of enzyme necessary for inhibiting the reaction by 50%. Auto oxidation of Pyrogallol in Tris-HCL buffer (50 mM, pH 7.5) is measured by increase in absorbance at 420 nm.

[5] = system: bone marrow cells; type: in vivo, Swiss albino mice; details: S-180 tumor bearers
Excerpt: (§3) The cells were resuspended in RPMI-1640.

[6] = system: bone marrow cells; type: in vivo; details: EAC tumor bearing mice
Excerpt: as §3

[7] = system: human PBMC; experiment: Cytotoxicity (cell viability) of M2 against human PBMC; type: cell-based; details: for Total Cell Count (% survival): mean ± SD of five experiments
Experimental: Peripheral blood mononuclear cells (PBMC) were isolated from normal human blood and were maintained in RPMI supplemented with 10% FBS, 100 μg/ml streptomycin and 50 units/ml penicillin, at 37° C. in a humidified incubator containing 5% CO2. […] The doses that were tested ranged between 0.5433×10^−7 μM to 35 μM.

[8] = system: A 549: Lung Cancer cell with wild type p53; experiment: Cytotoxicity against cancer cell lines: A 549; type: cell-based
Experimental: (§4) Cancer cell lines with functional or disrupted p53 expression were maintained in ATCC recommended culture media supplemented with 10% FBS, 100 μg/ml streptomycin and 50 units/ml penicillin, at 37° C. in a humidified incubator containing 5% CO2. For experiments, cells (10^6) were plated with 2% serum and then the required experiments were performed. […] Simultaneously, the effect of the compound was also investigated in one p53 mutated breast cancer cell line and in one cervical cancer cell line with disrupted p53 pathway.

[9] = system: HepG2: Liver Cancer cell with wild type p53; experiment: Cytotoxicity against cancer cell lines: HepG2; type: cell-based
Experimental: as §4

[10] = system: MCF-7: Breast Cancer cell with p53 wild type; experiment: Cytotoxicity against cancer cell lines: MCF-7; type: cell-based
Experimental: as §4

[11] = system: MDA MB 231: Breast Cancer cell with p53 mutation; experiment: Cytotoxicity against cancer cell lines: MDA MB 231; type: cell-based
Experimental: as §4

[12] = system: HeLA: Cervical Cancer Cell with unstable P53; experiment: Cytotoxicity against cancer cell lines: HeLA; type: cell-based
Experimental: as §4

[13] = system: MDA MB 231 (p53 mutated); experiment: Cell cycle analysis of M2 treated p53 mutated breast cancer cell line (PI flowcytometry); type: cell-based; details: 12 hour exposure
Experimental: Cell cycle analyses were performed with the p53 mutated breast cancer cell line to explore deeper into the probable mechanism. […] For experiments, cells (10^6) were plated with 2% serum and then the required experiments were performed. Cells were harvested after 12 hour exposure with the compound at varying concentrations and cell cycle phase distribution of nuclear DNA was determined by flowcytometry using propidium iodide (PI) as DNA-binding fluorochrome.
Analyses of the cells in sub GO phase and S/G2/M are given as mean±Standard Deviation of five independent experiments.

[14] = system: Sarcoma 180 cells; experiment: Cytotoxicity study against Sarcoma 180 cells in vitro; type: cell-based, murine; details: Sarcoma 180 (in vitro)
Experimental: Before entering into the in vivo experiments with solid transplantable tumour model of sarcoma 180, the drug's efficacy was tested against the same tumor cell in vitro.

[15] = system: S-180 tumor cells; experiment: Comet assay in sarcoma tumor cells from treated mice (apoptosis); type: in vivo, Swiss albino mice; details: S-180 bearing mice, vs untreated sarcoma control
Experimental: Comet assay is a sensitive, reliable, and rapid method for DNA damage evaluation. The segmented DNA emigrates from the nucleus towards the anode under an electrical current to produce comets. About 400 μl of the cell suspension was mixed with 800 μl 1% low melting point agarose. Then 100 μl of the mixture was layered on slides precoated with a 1% normal melting point agarose and then covered with a cover slip. The slides were then placed in a refrigerator for 5 min. Then cover slips were carefully removed and the slides were left in a dark place except for the positive control slides. The positive control slides were treated with 200 μM H2O2 solution for 17 min at 4° C., while the negative control slides remained untreated. Then all the slides were immersed in cold lysis solution (2.5 M NaCl, 100 mM EDTA, 0.2 M NaOH, 10 mM Tris, 1% Triton X-100, pH=10), protected from light and refrigerated at 4° C. for 45 min. Slides were then left in freshly prepared electrophoresis solution (0.3 M NaOH, 1 mM EDTA, pH>13,) for 40 min. Electrophoresis was performed using the same solution at 300 mA, 25 V for 45 min. After electrophoresis the slides were neutralized gently with 0.4 M Tris buffer at pH 7.5 for 10 min and stained with 20 μg/ml ethidium bromide for 7 min. […] Comets were counted in four to five different fields of a section, and data are summarized in terms of percent comet. […]

[16] = Serum biochemical markers of toxicity (ALT, AST, ALP, creatinine); type: in vivo, Swiss albino mice; details: all M2 treated groups except the highest dose (40 μM)
Experimental: Alanine aminotransferase (ALT), aspartate aminotransferase (AST), alkaline phosphatase (ALP) and creatinine levels were measured from collected sera using kits (Sigma).

[17] = system: Nrf-2; experiment: Western blot of Nrf-2 in liver; type: in vivo, Swiss albino mice; details: S-180 tumor bearers, compared to sarcoma control
Experimental: (§5) Cell lysates were obtained and equal amounts of protein from each sample were diluted with loading buffer, denatured, and separated by 10% sodium dodecyl sulfate-polyacrylamide gel electrophoresis (SDS-PAGE) followed by protein transfer to polyvinylidene fluoride membranes (PVDF). […] Proteins were detected by incubation with corresponding primary antibodies (anti p53, anti-p21, anti-Nrf-2, anti-ERK3 and anti-PCNA) antibodies followed by blotting with AP-conjugated secondary antibody. The blots were then exposed to NBT/BCIP substrate for detection. This analysis was performed three times.

[18] = system: PCNA; experiment: Western blot of PCNA in bone marrow; type: in vivo, Swiss albino mice; details: all M2 treated groups, compared to sarcoma control
Experimental: as §5

[19] = system: PCNA; experiment: Western blot of PCNA in tumor tissue; type: in vivo, Swiss albino mice; details: S-180 tumor tissue
Experimental: as §5

[20] = system: ERK; experiment: Western blot of ERK in tumor tissue; type: in vivo, Swiss albino mice; details: S-180 tumor tissue, compared to sarcoma control and cyclophosphamide treated groups
Experimental: as §5

[21] = system: Ehrlich's ascites carcinoma (EAC); experiment: Ehrlich's ascites carcinoma (EAC) tumor model: tumor volume and cell count; type: in vivo; details: EAC bearing mice, 35 μM, vs EAC control and cyclophosphamide treated
Excerpt: Ehrlich's ascites carcinoma (EAC) cells were maintained by serial intra-peritoneal passage of 10^5 cells per mice. EAC cells were collected from tumor-bearing mice at the exponential phase of growth, roughly 7 days after tumor transplant. The cells were drawn out aseptically with the help of a fine needle. The cells were washed in PBS and counted with the help of a Hemocytometer by the Trypan Blue dye exclusion test. The cells were suspended in PBS and inoculated into the next batch of mice.

[22] = system: human PBMC; experiment: Cytotoxicity (cell viability) of M2 against human PBMC; type: cell-based; details: highest dose 30 μM
[23] = biological target: G-Quadruplex 5′-TAGGG(TTAGGG)3-3′; experiment: Fluorescence emission titration with G-Quadruplex; details: read-out: equilibrium dissociation constant (KD); from change in fluorescence emission maxima of G-Quadruplex
Experimental: The emission spectra of a DNA duplex and G-Quadruplex sequence were recorded at room temperature using Hitachi spectrometer (F-700 FL spectrophotometer) with one cm path-length quartz cuvette. The emission spectrum was recorded from 300-500 nm with an excitation wavelength of 260 nm. Excitation and emission slits were set to 5 nm each. Emission spectra were recorded by titrating small molecules up to 50 μM concentration against 10 μM G-Quadruplex and duplex DNA.

[24] = S-180 tumor bearers, cyclophosphamide treatment

SMILES: O=P1(N(CCCl)CCCl)NCCCO1 (stereo not shown) [cyclophosphamide, reference compound]
- hypoploid cells (sub-G0 region) of tumor cells ([1]; S-180 bearing mice, cyclophosphamide treated group): 42.1%
- bone marrow hypoploidy peak [2, 24]: 48.5%
- bone marrow proliferative phases (S and G2/M combined) [2, 24]: 3%
- hepatic LPO levels (oxidative stress) ([3]; liver of S-180 tumor bearers, vs sarcoma control): further enhanced
- activity of hepatic anti-oxidant enzymes SOD, CAT and GST ([4]; liver of S-180 tumor bearers, vs normal and sarcoma control): depression
- bone marrow cell count / bone marrow suppression [5]: significant depression
- effect on bone marrow (cell count) [6]: induces myelosuppression

SMILES: CN(CCC#N)c1ccc(C=NCCCN=Cc2ccc(N(C)CCC#N)cc2)cc1 [M2, Bis(3-[4-({[3-({4-[(2 cyanoethyl)(methyl)amino]benzylidene}amino)propyl]imino}methyl)(methyl)anilino]propanenitrile)]
- effect on the viability of human PBMC ([7]; doses 0.1 to 25 μM): negligible effect
- PBMC that could not survive the treatment ([7]; human PBMC, 35 μM, 12 hours): ~25%
- Total Cell Count (% survival) ([7]; human PBMC, dose 1 μM): 90.67 ± 2.16%
- Total Cell Count (% survival) ([7]; human PBMC, dose 5 μM): 89.50 ± 1.05%
- Total Cell Count (% survival) ([7]; human PBMC, dose 10 μM): 88.67 ± 1.75%
- Total Cell Count (% survival) ([7]; human PBMC, dose 15 μM): 88.83 ± 1.47%
- Total Cell Count (% survival) ([7]; human PBMC, dose 20 μM): 87.33 ± 1.97%
- Total Cell Count (% survival) ([7]; human PBMC, dose 25 μM): 85.17 ± 1.94%
- Total Cell Count (% survival) ([7]; human PBMC, dose 30 μM): 77.67 ± 3.44%
- Death Percentages ([8]; A 549, dose 15 μM): 26 ± 4.32%
- Death Percentages ([8]; A 549, dose 20 μM): 34.25 ± 4.35%
- Death Percentages ([8]; A 549, dose 25 μM): 47.75 ± 6.34%
- Death Percentages ([9]; HepG2, dose 15 μM): 20.75 ± 5.25%
- Death Percentages ([9]; HepG2, dose 20 μM): 38.5 ± 6.25%,
- Death Percentages ([9]; HepG2, dose 25 μM): 55.86 ± 7.12%
- Death Percentages ([10]; MCF-7, dose 15 μM): 23.00 ± 7.26%
- Death Percentages ([10]; MCF-7, dose 20 μM): 32.5 ± 2.89%
- Death Percentages ([10]; MCF-7, dose 25 μM): 41.5 ± 2.65%
- Death Percentages ([11]; MDA MB 231, dose 15 μM): 36.50 ± 5.00%
- Death Percentages ([11]; MDA MB 231, dose 20 μM): 47.00 ± 6.78%
- Death Percentages ([11]; MDA MB 231, dose 25 μM): 60% and 60.25 ± 9.03%
- Death Percentages ([12]; dose 15 μM): 20.5 ± 4.20%
- Death Percentages ([12]; dose 20 μM): 37.75 ± 5.44%
- Death Percentages ([12]; dose 25 μM): 46.75 ± 5.38%
- % S/G2/M as from cell cycle analysis ([13]; MDA MB 231, dose 15 μM): 10.76 ± 1.38%
- % Sub G0 as from cell cycle analysis ([13]; MDA MB 231, dose 15 μM): 16.08 ± 2.28%
- % S/G2/M as from cell cycle analysis ([13]; MDA MB 231, dose 20 μM): 12.09 ± 1.77%
- % Sub G0 as from cell cycle analysis ([13]; MDA MB 231, dose 20 μM): 27.38 ± 2.28%
- % S/G2/M as from cell cycle analysis ([13]; MDA MB 231, dose 25 μM): 16.94 ± 4.82%
- % Sub G0 as from cell cycle analysis ([13]; MDA MB 231, dose 25 μM): 30.50 ± 4.96%
- Death Percentages ([14]; dose 15 μM): 36.67 ± 6.12%
- Death Percentages ([14]; dose 20 μM): 50.33 ± 5.03%
- Death Percentages ([14]; dose 25 μM): 57.33 ± 4.16%
- hypoploid cells (sub-G0 region) of tumor cells ([1]; mouse, in vivo): 39.94% and 69.2% and 41.5%
- proliferative stage (sum of S and G2/M) of tumor cells ([1]; mouse, in vivo): distinctive depression
- bone marrow hypoploidy peak ([2]; mouse, in vivo): 5.4%
- bone marrow proliferative phase ([2]; mouse, in vivo): did not decrease
- DNA damage in tumor cells (percentage of comet cells per field) [15]: significant DNA damage
- Serum ALT, AST, ALP values and creatinine levels [16]: within the normal range
- hepatic LPO levels (oxidative stress) ([3]; mouse, in vivo): significant decrease
- activity of hepatic anti-oxidant enzymes SOD, CAT and GST ([4]; mouse, in vivo): increase
- bone marrow cell count / bone marrow suppression [5]: did not cause bone marrow suppression
- Nrf-2 expression in the liver [17]: increased
- PCNA expression in bone marrow [18]: significant increase
- PCNA expression in tumor tissues [19]: decrease
- expression of ERK in tumor tissues [20]: significantly reduce
- tumor cell count [21]: significant reduction
- tumor volume [21]: significant reduction
- effect on bone marrow (cell count) [6]: protective effect
- cytotoxic effect on human PBMC [22]: cytotoxic effect
- Kd [23]: 31 ± 1.2 µM
